The text below walks through data of patent US8741849B2, “Kinase inhibitors and uses thereof” (priority 2007, dated 2014).

pIC50: −log10 of the molar value. Where no end group is shown, it is not given here.

In one assay the target is T1, PKB β (h) (Homo sapiens, UniProt P31751).
T1 construct: purchased Upstate (Millipore) KinaseProfiler service
Kind of assay: kinase profiler assay (radiometric). It counts as biochemical. The conditions noted are these: read-out: Profile-1, PKB β (h). The source says:
KIP peptides […] [SEQ ID NO: 142], […] [SEQ ID NO: 173], and […] [SEQ ID NO: 163] were utilized to profile a variety of different kinases. The kinase profiler assay services provided by Upstate, a part of Millipore Corporation (Billerica, Mass.), were utilized to conduct the kinase profiles. The kinase profiler assays, which are radiometric, are based on measuring the amount of radioactive transfer from an ATP (y-^33P-ATP) to a substrate peptide using known concentrations of kinase enzyme, inhibitor, ATP, and buffer at defined time points and temperatures. Details on the reaction conditions for each kinase are available at www.millipore.com/drugdiscovery/dd3/KinaseProfiler. […] ROCK-1(h) (5-10 mU) was incubated with 8 mM MOPS pH 7.0, 0.2 mM EDTA, 30 i.IM of the peptide […] [SEQ ID NO: 189], 10 mM Mg acetate and y-^33P-ATP (specific activity approximately 500 cpm/pmol, concentration as required) in a final reaction volume of 25 pl. The reaction was initiated by the addition of the MgATP mixture in the absence and presence of inhibitor compounds. After incubation for 40 minutes at room temperature, the reaction was stopped by the addition of 5) 11 of a 3% phosphoric acid solution. 10 pl of the reaction mixture then was spotted onto a P30 filtermat. The filtermat was washed three times for 5 minutes in 75 mM phosphoric acid, once in methanol, dried and counted by scintillation counting. Where the kinase is uninhibited, the kinase phosphorylates a positively charged substrate with radioactive ATP, which then binds to a negatively charged filter membrane. Scintillation counts (radioactivity) directly correlate with kinase activity. […] All profile data less than 100 indicate kinase inhibition while data greater than 100 indicate kinase stimulation.

Another assay relates to AMPK (r). Kind of assay: kinase profiler assay (radiometric). As to conditions: @ = 100 μm peptide; less than 100 = kinase inhibition, greater than 100 = stimulation. Type of assay: biochemical, rat. The source says:
KIP peptides […] [SEQ ID NO: 142], […] [SEQ ID NO: 173], and […] [SEQ ID NO: 163] were utilized to profile a variety of different kinases. The kinase profiler assay services provided by Upstate, a part of Millipore Corporation (Billerica, Mass.), were utilized to conduct the kinase profiles. The kinase profiler assays, which are radiometric, are based on measuring the amount of radioactive transfer from an ATP (y-^33P-ATP) to a substrate peptide using known concentrations of kinase enzyme, inhibitor, ATP, and buffer at defined time points and temperatures. Details on the reaction conditions for each kinase are available at www.millipore.com/drugdiscovery/dd3/KinaseProfiler. […] ROCK-1(h) (5-10 mU) was incubated with 8 mM MOPS pH 7.0, 0.2 mM EDTA, 30 i.IM of the peptide […] [SEQ ID NO: 189], 10 mM Mg acetate and y-^33P-ATP (specific activity approximately 500 cpm/pmol, concentration as required) in a final reaction volume of 25 pl. The reaction was initiated by the addition of the MgATP mixture in the absence and presence of inhibitor compounds. […] The filtermat was washed three times for 5 minutes in 75 mM phosphoric acid, once in methanol, dried and counted by scintillation counting. […] Scintillation counts (radioactivity) directly correlate with kinase activity. […]

The next assay deals with MAPKAP kinase II (MK2) (Homo sapiens, UniProt P49137). Kind of assay: Omnia Lysate Assay for MAPKAP-K2: MK2 reaction velocity. It counts as biochemical. As to conditions: same assay conditions as Example 1. The procedure: Using the Omnia™ Lysate Assay for MAPKAP-K2 kit (Invitrogen, Carlsbad, Calif.), the reaction velocity for MK2 was determined in the presence and absence of each of the peptides listed in Table 2. Briefly, inhibitor peptide concentrations at 12.5 μmol, 25 μmol, 50 μmol and 100 μmol were evaluated. The kit contains a proprietary reaction buffer to which the following are added (final concentrations are given): 1 mM ATP, 0.2 mM DTT, 10 μM MAPKAP-K2 Sox-modified peptide substrate, 5 ng MK2, and the peptide inhibitor of interest (final volume of 50 μL). The reactions were performed in the wells of a low protein-binding 96-well plate provided with the kit, and fluorescence readings at 485 nm were taken every 30 seconds for 20 minutes in a Molecular Devices M5 Spectrophotometer. A peptide having the sequence […]
The MK2 inhibition activity of […] [SEQ ID NO: 134] transduction domain was compared with the MK2 inhibition activity of other known transduction domains—[…] [SEQ ID NO: 135] and […] [SEQ ID NO: 190]. The transduction domains were tested for MK2 activity using the same assay conditions as Example 1.
A set of MK2 inhibitor peptides having transduction domains was synthesized (see Table 5). Variants included peptides with the […] [SEQ ID NO: 134] transduction domain and alanine substituted for asparagine, alanine substituted for glycine, or both alanine substitutions in the therapeutic domain. The same peptides with the […] [SEQ ID NO: 135] transduction domain also were prepared. The reaction velocities of these variants were compared to the reaction velocity of a blank with no inhibitor added.

Another assay deals with T2, CaMKIV (Homo sapiens, UniProt Q16566).
T2 sequence (Q16566 1-473): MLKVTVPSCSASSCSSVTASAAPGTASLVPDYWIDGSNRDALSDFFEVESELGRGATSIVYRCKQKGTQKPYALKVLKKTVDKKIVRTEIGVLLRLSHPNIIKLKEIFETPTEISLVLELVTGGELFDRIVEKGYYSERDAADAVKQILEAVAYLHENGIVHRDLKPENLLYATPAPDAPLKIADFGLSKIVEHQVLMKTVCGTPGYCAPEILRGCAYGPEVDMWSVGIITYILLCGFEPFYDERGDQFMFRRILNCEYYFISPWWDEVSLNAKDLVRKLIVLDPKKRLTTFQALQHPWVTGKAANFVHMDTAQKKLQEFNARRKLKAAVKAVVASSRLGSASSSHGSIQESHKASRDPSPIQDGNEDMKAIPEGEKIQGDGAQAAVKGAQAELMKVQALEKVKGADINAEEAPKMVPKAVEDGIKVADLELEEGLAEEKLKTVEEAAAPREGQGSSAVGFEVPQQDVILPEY
The conditions noted are these: 1 μM AIP; cited from earlier work.

The next assay concerns PKA. The conditions noted are these: 1 μM AIP; cited from earlier work.
Assay [1] relates to Ca2+/calmodulin-dependent protein kinase II (CaMKII). As to conditions: cited from earlier work.
In a further assay the test system is PKC. The conditions noted are these: 1 μM AIP; cited from earlier work.
Assay [2] relates to PC3 prostate cancer cells. Kind of assay: Toxicity testing on cancer cell lines (MTT). As to conditions: 72 hours, n=4, read-out: Cell Line IC50, PC3. Type of assay: cell-based. The procedure: (§1) The seven cell lines were: estrogen dependent MCF-7 breast cancer cells, non estrogen dependent MDA 231 breast cancer cells, SF 539 central nervous system cancer cells, HT29 colon cancer cells, Paca 2 pancreatic cancer cells, PC3 prostate cancer cells, and A549 lung cancer cells. For each cell line, exponentially growing cells were trypsinized and seeded into individual wells of a 96-well plate. Cells were maintained in a humidified, 5% CO2 incubator at 37° C. for 24 hours. The next day, fresh media was added along with 1 μl of a stock solution of peptide to give final peptide concentrations of 0.3 μM, 1 μM, 3 μM, 10 μM, 30 μM, and 100 μM (n=4). Doxorubicin was tested as a positive control. After incubating the cells for 72 hours, to each well was added 20 μl of 0.5% MTT {3-([…])-2,5 diphenyl tetrazolium bromide} solution. The plates then were incubated for an additional 4 hours, at which time the absorbance at 570 nm was measured for each well using a microplate reader. The absorbance was plotted as function of peptide concentration, and IC50 values were calculated for each peptide for each cell line.

In another assay the test system is HT29 colon cancer cells. Kind of assay: Toxicity testing on cancer cell lines (MTT). It counts as cell-based. The conditions noted are these: 72 hours, n=4, read-out: Cell Line IC50, HT29. Here is the method: as §1
Assay [3] concerns SF 539 central nervous system cancer cells. Kind of assay: Toxicity testing on cancer cell lines (MTT). Type of assay: cell-based. The conditions noted are these: 72 hours, n=4, read-out: Cell Line IC50, SF 539. The procedure:
as §1

Assay [4] has as its system non estrogen dependent MDA 231 breast cancer cells. Kind of assay: Toxicity testing on cancer cell lines (MTT). The conditions noted are these: 72 hours, n=4, read-out: Cell Line IC50, MDA 231. Type of assay: cell-based. Here is the method:
as §1

Assay [5] deals with Paca 2 pancreatic cancer cells. Kind of assay: Toxicity testing on cancer cell lines (MTT). Type of assay: cell-based. As to conditions: 72 hours, n=4, read-out: Cell Line IC50, Paca 2. The procedure: as §1
For a further assay, the system named is A549 lung cancer cells. Kind of assay: Toxicity testing on cancer cell lines (MTT). Type of assay: cell-based. The conditions noted are these: 72 hours, n=4, read-out: Cell Line IC50, A549. Here is the method:
as §1

The test system of assay [6] is estrogen dependent MCF-7 breast cancer cells. Kind of assay: Toxicity testing on cancer cell lines (MTT). Type of assay: cell-based. The conditions noted are these: 72 hours, n=4, read-out: Cell Line IC50, MCF-7. The procedure: as §1

Chain of MAPKAP kinase II (MK2) (P49137 whole entry, species assumed): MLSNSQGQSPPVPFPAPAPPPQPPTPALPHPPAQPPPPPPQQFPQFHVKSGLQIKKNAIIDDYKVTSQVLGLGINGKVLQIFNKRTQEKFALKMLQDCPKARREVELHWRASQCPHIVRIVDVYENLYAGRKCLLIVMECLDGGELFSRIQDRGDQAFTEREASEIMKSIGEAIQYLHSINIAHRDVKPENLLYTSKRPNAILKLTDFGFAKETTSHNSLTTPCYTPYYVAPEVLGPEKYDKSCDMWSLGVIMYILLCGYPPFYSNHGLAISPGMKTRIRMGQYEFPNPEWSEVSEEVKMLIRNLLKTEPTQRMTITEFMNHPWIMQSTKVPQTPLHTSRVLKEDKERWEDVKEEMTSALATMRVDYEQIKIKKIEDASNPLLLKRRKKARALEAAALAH
T1 sequence (P31751 whole entry): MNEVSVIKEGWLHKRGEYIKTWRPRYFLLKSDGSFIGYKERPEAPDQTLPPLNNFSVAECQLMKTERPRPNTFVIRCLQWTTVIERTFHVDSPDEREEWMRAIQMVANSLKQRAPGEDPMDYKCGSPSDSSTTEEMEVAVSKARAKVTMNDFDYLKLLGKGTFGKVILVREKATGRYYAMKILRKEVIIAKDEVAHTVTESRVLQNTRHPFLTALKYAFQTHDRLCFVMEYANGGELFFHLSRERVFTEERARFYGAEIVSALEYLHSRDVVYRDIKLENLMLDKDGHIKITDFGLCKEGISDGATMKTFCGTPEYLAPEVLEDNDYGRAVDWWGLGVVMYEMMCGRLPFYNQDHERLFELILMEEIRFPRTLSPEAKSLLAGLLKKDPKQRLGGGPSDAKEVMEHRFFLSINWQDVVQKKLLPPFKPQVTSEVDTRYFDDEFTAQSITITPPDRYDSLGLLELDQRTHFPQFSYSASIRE

For the compound `CC(C)C[C@H](NC(=O)[C@H](C)NC(=O)[C@H](CCCCN)NC(=O)[C@H](CCCNC(=N)N)NC(=O)[C@H](Cc1ccc(O)cc1)NC(=O)[C@H](CC(C)C)NC(=O)[C@H](CCCNC(=N)N)NC(=O)[C@H](C)NC(=O)[C@H](C)NC(=O)[C@H](CC(C)C)NC(=O)[C@H](CCCCN)NC(=O)[C@H](C)NC(=O)[C@@H](N)Cc1ccccc1)C(=O)N[C@@H](C)C(=O)N[C@@H](CCCNC(=N)N)C(=O)N[C@@H](CCC(N)=O)C(=O)N[C@@H](CC(C)C)C(=O)NCC(=O)N[C@H](C(=O)N[C@@H](C)C(=O)N[C@@H](C)C(=O)O)C(C)C`, on PKB β (h), the activity at 100 µM stood at 16%. For the same compound, the “Profile-1, AMPK (r)” value in the assay on AMPK (r) amounted to 101.
With `CC(C)C[C@H](NC(=O)[C@H](C)NC(=O)[C@H](CCCCN)NC(=O)[C@H](CCCNC(=N)N)NC(=O)[C@H](Cc1ccc(O)cc1)NC(=O)[C@H](CC(C)C)NC(=O)[C@H](CCCNC(=N)N)NC(=O)[C@H](C)NC(=O)[C@H](C)NC(=O)[C@H](CC(C)C)NC(=O)[C@H](CCCCN)NC(=O)[C@H](C)NC(=O)[C@H](Cc1ccccc1)NC(=O)[C@H](C)NC(=O)[C@@H](N)CCCCN)C(=O)N[C@@H](C)C(=O)N[C@@H](CCCNC(=N)N)C(=O)N[C@@H](CCC(N)=O)C(=O)N[C@@H](CC(C)C)C(=O)NCC(=O)N[C@H](C(=O)N[C@@H](C)C(=O)N[C@@H](C)C(=O)O)C(C)C`, the activity at 100 µM on PKB β (h) was found to be 28%. Also, the “Profile-1, AMPK (r)” value in the assay on AMPK (r) is given as 118.
Regarding `CC[C@H](C)[C@H](NC(=O)[C@H](CCCNC(=N)N)NC(=O)[C@H](CCCNC(=N)N)NC(=O)[C@H](CC(C)C)NC(=O)[C@H](Cc1c[nH]c2ccccc12)NC(=O)[C@H](C)NC(=O)[C@H](CCCCN)NC(=O)[C@@H](NC(=O)[C@H](CCCNC(=N)N)NC(=O)[C@H](CCCNC(=N)N)NC(=O)[C@H](CC(C)C)NC(=O)[C@@H](N)Cc1c[nH]c2ccccc12)[C@@H](C)CC)C(=O)N[C@@H](CCCCN)C(=O)N[C@@H](C)C(=O)O`, at MAPKAP kinase II (MK2), the “MK2 inhibition (in words)” value is “inhibited MK2 significantly more than KKKALNRQLGVAA”.
Still for that read-out and setting: the same measure for `N=C(N)NCCC[C@H](NC(=O)[C@H](CCCNC(=N)N)NC(=O)[C@H](CCCNC(=N)N)NC(=O)[C@H](CCC(N)=O)NC(=O)[C@H](CCCNC(=N)N)NC(=O)[C@H](CCCNC(=N)N)NC(=O)[C@H](CCCCN)NC(=O)[C@H](CCCCN)NC(=O)[C@H](CCCNC(=N)N)NC(=O)CNC(=O)[C@@H](N)Cc1ccc(O)cc1)C(=O)O` [reference compound]: “also inhibit MK2 but not nearly as much as WLRRIKAWLRRIKA”.
Regarding KKALRRQEAVDAL [AIP], the CaMKIV activity entry on CaMKIV is on record as “not affected”. In the assay with PKA, the PKA activity result is reported as “not affected”. For the same compound, in [1] (1 μM AIP), the CaMKII activity entry is “completely inhibited”. Further, the pIC50 (usually the negative decadic logarithm of the IC50, by convention in mol/L) in assay [1] was 7.00. The PKC activity entry in the assay on PKC was “not affected”.
Regarding WLRRIKA [WLRRIKA], the “MK2 inhibition (in words)” value at MAPKAP kinase II (MK2) is recorded as “same level of inhibition as the no inhibitor control”.
Consider WLRRIKAHRRIKALARQLGVAA [Peptide 2], for which the pIC50 in [2] was 4.54; in the assay with HT29 colon cancer cells it was 4.58; in assay [3], 4.59; in assay [4], 4.70; in assay [5], 4.71; in the assay on A549 lung cancer cells, 4.50. For the same compound, the negative logarithm of the IC50 (pIC50) in assay [6] is 5.11.
WLRRIKAWLRR [Peptide 3]: the pIC50 is 4.45 in assay [2]; 4.68 in the assay with HT29 colon cancer cells; 4.66 in assay [3]; 4.76 in [4]; 4.37 in assay [5]; 4.46 with A549 lung cancer cells. Further, the pIC50 in assay [6] was 4.87.
As to WLRRIKAWLRRALNRQLGVAA [Peptide 4], the pIC50 in assay [2] was 4.63; in the assay with HT29 colon cancer cells, 4.93; in [3], 5.00; in [4], 4.92; in assay [5], 4.95; in the assay on A549 lung cancer cells, 4.90. The pIC50 in assay [6] is 5.36.
Regarding YARAAARQARA [reference compound], the “MK2 inhibition (in words)” value at MAPKAP kinase II (MK2) is listed as “also inhibit MK2 but not nearly as much as WLRRIKAWLRRIKA”.
